# From patent publication US6355799B1, “Substituted benzene compounds, process for their preparation, and herbicidal and defoliant compositions containing them” (ISK Americas Incorporated, priority 1997, dated 2002)
# Tests used:
# Format in all cases: in vivo
# [1] = tested on: redroot pigweed (Amaranthus retroflexus, AMARE); experiment: Pre-emerge test, greenhouse herbicide activity screening; details: phytotoxicity rating 0-100, 14 days after application
# Summary of the method: (§1)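 Compounds in acetone were track-sprayed at 187 l/ha, 15–1000 g ai/ha, onto sandy loam pots. Pre-emerge seeds were sown one day before spraying, with surface watering afterwards. Post-emerge plants were at the 2–3 leaf stage and sprayed with 0.25% v/v non-ionic surfactant. Injury was rated 0–100 at 14 days.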
# [2] = tested on: barnyardgrass (Echinochloa crus-galli, ECHCG); experiment: Post-emerge test, greenhouse herbicide activity screening; details: post-emerge, 14 days after application, rating scale 0-100
# Summary of the method: as §1
# [3] = tested on: lambsquarters (Chenopodium album, CHEAL); experiment: as above; details: post-emerge, 14 days after application, rating scale 0-100
# Summary of the method: as §1
# [4] = tested on: ivyleaf morningglory (Ipomoea hederacea, IPOHE); experiment: as above; details: post-emerge, 14 days after application, rating scale 0-100
# Summary of the method: as §1
# [5] = tested on: johnsongrass (Sorghum halepense, SORHA); experiment: as above; details: post-emerge, 14 days after application, rating scale 0-100
# Summary of the method: as §1
# [6] = tested on: redroot pigweed (Amaranthus retroflexus, AMARE); experiment: as above; details: post-emerge, 14 days after application
# Summary of the method: as §1
# [7] = tested on: large crabgrass (Digitaria sanguinalis, DIGSA); experiment: as above; details: post-emerge, 14 days after application, rating scale 0-100
# Summary of the method: as §1
# [8] = tested on: sicklepod (Cassia obtusifolia, CASOB); experiment: as above; details: post-emerge, 14 days after application, rating scale 0-100
# Summary of the method: as §1
# [9] = tested on: green foxtail (Setaria viridis, SETVI); experiment: as above; details: post-emerge, 14 days after application, rating scale 0-100
# Summary of the method: as §1
# [10] = tested on: velvetleaf (Abutilon theophrasti, ABUTH); experiment: as above; details: post-emerge, 14 days after application, rating scale 0-100
# Summary of the method: as §1
# [11] = tested on: upland rice (Oryza sp., var. Tebonnet, RICE); experiment: Pre-emerge test, crop safety; details: crop damage rating 0-100, 14 days after application
# Summary of the method: (§2)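 Plants grown in 10 cm pots of sandy loam mix received acetone-dissolved compounds through a moving flat-fan nozzle. Doses ranged from 15 to 1000 g ai/ha. Pre-emerge pots were seeded one day earlier, post-emerge pots 8–21 days earlier. Fourteen days on, each pot was graded 0–100 for damage.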
# [12] = tested on: field corn (Zea mays L., var. Dekalb 535, CORN); experiment: Pre-emerge test, crop safety; details: crop damage rating 0-100, 14 days after application
# Summary of the method: as §2
# [13] = tested on: upland rice (Oryza sp., var. Tebonnet, RICE); experiment: Post-emerge test, crop safety; details: post-emerge, 14 days after application, rating scale 0-100
# Summary of the method: (§3)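 Compounds in acetone were track-sprayed at 15-1000 g ai/ha (187 l/ha) on sandy loam pots: pre-emerge one day after seeding, post-emerge at 2-3 leaf stage with 0.25% v/v non-ionic surfactant. Phytotoxicity was rated 14 days later on a 0 (no damage) to 100 (complete death) scale.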
# [14] = tested on: field corn (Zea mays L., var. Dekalb 535, CORN); experiment: Post-emerge test, crop safety; details: post-emerge, 14 days after application, rating scale 0-100
# Summary of the method: as §3
# [15] = tested on: barnyardgrass (Echinochloa crus-galli, ECHCG); experiment: Pre-emerge test, greenhouse herbicide activity screening; details: phytotoxicity rating 0-100, 14 days after application
# Summary of the method: as §3
# [16] = tested on: lambsquarters (Chenopodium album, CHEAL); experiment: as above; details: phytotoxicity rating 0-100, 14 days after application
# Summary of the method: as §3
# [17] = tested on: ivyleaf morningglory (Ipomoea hederacea, IPOHE); experiment: as above; details: phytotoxicity rating 0-100, 14 days after application
# Summary of the method: as §3
# [18] = tested on: johnsongrass (Sorghum halepense, SORHA); experiment: as above; details: phytotoxicity rating 0-100, 14 days after application
# Summary of the method: as §3
# [19] = tested on: large crabgrass (Digitaria sanguinalis, DIGSA); experiment: as above; details: phytotoxicity rating 0-100, 14 days after application
# Summary of the method: as §3
# [20] = tested on: sicklepod (Cassia obtusifolia, CASOB); experiment: as above; details: phytotoxicity rating 0-100, 14 days after application
# Summary of the method: as §3
# [21] = tested on: green foxtail (Setaria viridis, SETVI); experiment: as above; details: phytotoxicity rating 0-100, 14 days after application
# Summary of the method: as §3
# [22] = tested on: velvetleaf (Abutilon theophrasti, ABUTH); experiment: as above; details: phytotoxicity rating 0-100, 14 days after application
# Summary of the method: as §3
compound,measurement,setting,value
CCc1ccc(COC(=O)Nc2c(OC)c(Cl)cc(F)c2-n2c(=O)cc(C(F)(F)F)n(C)c2=O)cc1 [4-31],Pre-emerge Herbicidal Activity AMARE,[1]; 63 g ai/ha,100
same,Pre-emerge Herbicidal Activity AMARE,[1]; 250 g ai/ha,100
same,phytotoxicity rating ECHCG,[2]; 63 g ai/ha,10
same,phytotoxicity rating ECHCG,[2]; 250 g ai/ha,10
same,phytotoxicity rating CHEAL,[3]; 63 g ai/ha,100
same,phytotoxicity rating CHEAL,[3]; 250 g ai/ha,100
same,phytotoxicity rating IPOHE,[4]; 63 g ai/ha,100
same,phytotoxicity rating IPOHE,[4]; 250 g ai/ha,100
same,phytotoxicity rating SORHA,[5]; 63 g ai/ha,0
same,phytotoxicity rating SORHA,[5]; 250 g ai/ha,10
same,phytotoxicity rating AMARE,"[6]; 63 g ai/ha, rating scale 0-100 (0 no damage, 100 complete death)",100
same,phytotoxicity rating AMARE,"[6]; 250 g ai/ha, rating scale 0-100",100
same,phytotoxicity rating DIGSA,[7]; 63 g ai/ha,0
same,phytotoxicity rating DIGSA,[7]; 250 g ai/ha,10
same,phytotoxicity rating CASOB,[8]; 63 g ai/ha,10
same,phytotoxicity rating CASOB,[8]; 250 g ai/ha,30
same,phytotoxicity rating SETVI,[9]; 63 g ai/ha,20
same,phytotoxicity rating SETVI,[9]; 250 g ai/ha,40
same,phytotoxicity rating ABUTH,[10]; 63 g ai/ha,100
same,phytotoxicity rating ABUTH,[10]; 250 g ai/ha,100
same,Pre-emerge Herbicidal Activity RICE,[11]; 63 g ai/ha,10
same,Pre-emerge Herbicidal Activity RICE,[11]; 250 g ai/ha,30
same,Pre-emerge Herbicidal Activity CORN,[12]; 63 g ai/ha,0
same,Pre-emerge Herbicidal Activity CORN,[12]; 250 g ai/ha,10
same,phytotoxicity rating RICE (crop damage),[13]; 63 g ai/ha,20
same,phytotoxicity rating RICE (crop damage),[13]; 250 g ai/ha,40
same,phytotoxicity rating CORN (crop damage),[14]; 63 g ai/ha,10
same,phytotoxicity rating CORN (crop damage),[14]; 250 g ai/ha,25
same,Pre-emerge Herbicidal Activity ECHCG,[15]; 63 g ai/ha,10
same,Pre-emerge Herbicidal Activity ECHCG,[15]; 250 g ai/ha,30
same,Pre-emerge Herbicidal Activity CHEAL,[16]; 63 g ai/ha,90
same,Pre-emerge Herbicidal Activity CHEAL,[16]; 250 g ai/ha,100
same,Pre-emerge Herbicidal Activity IPOHE,[17]; 63 g ai/ha,0
same,Pre-emerge Herbicidal Activity IPOHE,[17]; 250 g ai/ha,40
same,Pre-emerge Herbicidal Activity SORHA,[18]; 63 g ai/ha,10
same,Pre-emerge Herbicidal Activity SORHA,[18]; 250 g ai/ha,20
same,Pre-emerge Herbicidal Activity DIGSA,[19]; 63 g ai/ha,50
same,Pre-emerge Herbicidal Activity DIGSA,[19]; 250 g ai/ha,100
same,Pre-emerge Herbicidal Activity CASOB,[20]; 63 g ai/ha,0
same,Pre-emerge Herbicidal Activity CASOB,[20]; 250 g ai/ha,10
same,Pre-emerge Herbicidal Activity SETVI,[21]; 63 g ai/ha,90
same,Pre-emerge Herbicidal Activity SETVI,[21]; 250 g ai/ha,100
same,Pre-emerge Herbicidal Activity ABUTH,[22]; 63 g ai/ha,30
same,Pre-emerge Herbicidal Activity ABUTH,[22]; 250 g ai/ha,100
